The text below walks through data of ChEMBL document CHEMBL2074136, “Citrus juices inhibit the function of human organic anion-transporting polypeptide OATP-B” (Drug Metab Dispos, 2005).

Common to all, as to assay type: functional, cell-based
Series [1] concerns the target T1, Solute carrier organic anion transporter family member 2B1 (Homo sapiens, UniProt O94956).
T1 sequence (O94956 whole entry): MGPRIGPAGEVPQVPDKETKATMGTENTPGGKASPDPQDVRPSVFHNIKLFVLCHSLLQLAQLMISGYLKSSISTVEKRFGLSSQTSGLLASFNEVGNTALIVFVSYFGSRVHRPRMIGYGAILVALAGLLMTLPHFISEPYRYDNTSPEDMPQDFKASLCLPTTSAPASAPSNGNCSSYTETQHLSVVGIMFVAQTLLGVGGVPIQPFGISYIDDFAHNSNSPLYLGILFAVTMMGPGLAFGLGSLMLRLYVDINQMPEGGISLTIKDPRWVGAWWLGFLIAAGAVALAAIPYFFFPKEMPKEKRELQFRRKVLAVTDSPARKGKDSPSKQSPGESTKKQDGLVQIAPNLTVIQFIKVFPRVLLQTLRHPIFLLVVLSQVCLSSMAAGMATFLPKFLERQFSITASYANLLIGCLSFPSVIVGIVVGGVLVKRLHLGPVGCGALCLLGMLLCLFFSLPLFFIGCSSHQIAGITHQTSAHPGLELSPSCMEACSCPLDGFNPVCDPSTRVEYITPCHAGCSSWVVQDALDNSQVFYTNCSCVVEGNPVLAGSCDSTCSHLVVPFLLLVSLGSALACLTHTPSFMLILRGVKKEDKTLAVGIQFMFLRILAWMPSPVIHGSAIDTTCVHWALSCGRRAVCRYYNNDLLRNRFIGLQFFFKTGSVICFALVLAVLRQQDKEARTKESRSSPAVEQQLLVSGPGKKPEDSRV
Kind of series: TP_TRANSPORTER: inhibition of glibenclamide uptake (glibenclamide: 10nM) in OATP2B1-expressing HEK293 cells. On the set-up: scale not given: the % may be the effect or the level left.

For series [2], the target named is T1, Solute carrier organic anion transporter family member 2B1. Kind of series: (§1) TP_TRANSPORTER: inhibition of Estrone-3-sulfate uptake (Estrone-3-sulfate: 10nM) in OATP2B1-expressing HEK293 cells. Further details: scale not given: the % may be the effect or the level left. The note with it: hek293.
A further series deals with T2, OATP2B1 (Homo sapiens, UniProt O94956).
T2 sequence (O94956 whole entry): T1 sequence (O94956 whole entry)
Described as §1. Further details: scale not given: the % may be the effect or the level left. Conditions: HEK293 cells expressing OATP2B1, probe Estrone-3-sulfate (10 nM).

Series [3] concerns the target T1, Solute carrier organic anion transporter family member 2B1. The series is described as follows: TP_TRANSPORTER: uptake of DHEAS at a concentration of 17.4nM in OATP2B1-expressing HEK293 cells.
Substrate in series [4]: COc1ccc(Cl)cc1C(=O)NCCc1ccc(S(=O)(=O)NC(=O)NC2CCCCC2)cc1
The series is described as follows: (§2) TP_TRANSPORTER: uptake in OATP2B1-expressing HEK293 cells.

Substrate in series [5]: C[C@]12CC[C@@H]3c4ccc(OS(=O)(=O)O)cc4CC[C@H]3[C@@H]1CCC2=O
Described as §2.

Regarding GRAPEFRUIT JUICE, the Activity in series [1] was 38%; in series [2], 18%.

For `O=c1c(O)c(-c2ccc(O)c(O)c2)oc2cc(O)cc(O)c12` [QUERCETIN], the Activity result in series [1] is “is not an inhibitor [(-)]”; at OATP2B1, 80%.

For ORANGE JUICE, the values for the Activity in series [1] and in series [2] were 50% and 45%, respectively.

As to `C/C(=C\COc1c2ccoc2cc2oc(=O)ccc12)CCC(O)C(C)(C)O` (stereo not drawn) [DIHYDROXYBERGAMOTTIN], the figures for the Activity (in series [1]; at OATP2B1) were 35% and 58%, respectively.

For `COc1ccc(-c2cc(=O)c3c(OC)c(OC)c(OC)c(OC)c3o2)cc1` [TANGERETIN], the Activity in series [1] came out at 25%; at OATP2B1, 89%.

As to APPLE JUICE, the Activity result in series [1] was “is not an inhibitor [(-)]”; in series [2] it was 89%.

Regarding `O=C1C[C@@H](c2ccc(O)cc2)Oc2cc(O)cc(O)c21` [NARINGENIN], the Activity in series [1] was determined as 45%; on OATP2B1, 72%.

Regarding `COc1ccc(-c2cc(=O)c3c(OC)c(OC)c(OC)c(OC)c3o2)cc1OC` [NOBILETIN], the Activity amounted to 58% in series [1] and 40% on OATP2B1.

Regarding `CC(C)=CCC/C(C)=C/COc1c2ccoc2cc2oc(=O)ccc12` [BERGAMOTTIN], the Activity result in series [1] is “is not an inhibitor [(-)]”; on OATP2B1 it was 40%.

In the case of `C[C@]12CC[C@H](OS(=O)(=O)O)CC1=CC[C@@H]1[C@@H]2CC[C@]2(C)C(=O)CC[C@@H]12` [PRASTERONE SULFURIC ACID], the Activity result in series [3] is “substrate [+]”.

With `C[C@@H]1O[C@@H](O[C@H]2[C@H](Oc3cc(O)c4c(c3)O[C@H](c3ccc(O)cc3)CC4=O)O[C@H](CO)[C@@H](O)[C@@H]2O)[C@H](O)[C@H](O)[C@H]1O` [NARINGIN], the values for the Activity (in series [1]; on OATP2B1) were 70% and 61%, respectively.

B1: Solute carrier organic anion transporter family member 2B1 (Homo sapiens) (protein)
chain: T1 sequence (O94956 whole entry)
As for B1, the Michaelis constant (Km) (usually the concentration of substrate that gives half-maximal velocity) in series [4] came out at 6.26 µM; in series [5], 7.14 µM.
